# Reference: article PMC10177447, “4-[(5-Methyl-1H-pyrazol-3-yl)amino]-2H-phenyl-1-phthalazinone Inhibits MCPyV T Antigen Expression in Merkel Cell Carcinoma Independent of Aurora Kinase A” (Cancers, 2023)
# Target: GSK3b (Homo sapiens, UniProt P49841)
# Assay: commercial GSK3 kinase assay (Promega) with ADP-Glo luminescence readout, dose-response
# Format: biochemical
# Sequence of GSK3b (P49841 whole entry): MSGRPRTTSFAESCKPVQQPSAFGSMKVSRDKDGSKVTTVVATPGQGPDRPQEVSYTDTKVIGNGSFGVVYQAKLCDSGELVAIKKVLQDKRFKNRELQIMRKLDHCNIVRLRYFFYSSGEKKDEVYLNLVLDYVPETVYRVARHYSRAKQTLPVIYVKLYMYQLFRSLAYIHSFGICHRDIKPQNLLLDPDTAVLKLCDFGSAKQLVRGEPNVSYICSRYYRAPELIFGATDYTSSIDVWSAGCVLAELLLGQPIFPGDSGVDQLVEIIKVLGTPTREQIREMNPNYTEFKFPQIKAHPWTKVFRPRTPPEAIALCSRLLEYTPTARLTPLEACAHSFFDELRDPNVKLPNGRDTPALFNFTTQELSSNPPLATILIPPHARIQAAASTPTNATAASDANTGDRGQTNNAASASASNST
smiles,measurement,value
"Cc1cc(Nc2nn(-c3ccccc3)c(=O)c3ccccc23)n[nH]1 [PHT, 4-[(5-methyl-1H-pyrazol-3-yl)amino]-2H-phenyl-1-phthalazinone]",IC50,29 nM
